Legend:
Sprague Dawley rat pups = experiment: rodent model of VGB-induced IME (white matter injury and vacuolation); format: in vivo
Description: Model of VGB-induced IME. We adhere to the same protocol used by Ovation in recent studies. Sprague Dawley rat pups are treated from postnatal day 4-25 with VBG (50 mg/kg) or vehicle. This is administered by oral gavage to rats starting on PND 4. The single dose of 50 mg/kg was selected on the basis of the previous study in which it produced vacuolar lesions (24, 31). Rats are sacrificed at P25 and perfused with 4% paraformaldehyde. Brains are cryoprotected in sucrose for frozen sectioning.
Treatment groups. We use an n of 15 animals per group. Vehicle only, VGB alone, or VGB and bumetanide. The doses are daily.
Histological and immunocytochemical methods. Using our published protocols for quantification of white matter myelination (29) we perform MBP staining. 16 μm coronal cryostat sections (Leica CM3050 S) were collected on Superfrost Plus slides. […]
Data analysis. Fluorescence images are obtained on a Zeiss Axioscope, using a Spot digital camera and Advanced 4.5 software (Diagnostic Instruments). […] ImageJ software is used to quantitate MBP and O4 immunostaining as a proportion of the white matter capsule area (29). This methodology was validated with ImageJ software quantitation of total area of MBP immunostaining within each 2.4 mm2 field. […]

NKCC1 = molecular target: T1, NKCC1 (Rattus norvegicus, UniProt E9PTX9); settings: bumetanide 0.1 mg/kg, rats, prior work; cited from earlier work
T1 construct: host or cells: rat brain, in vivo (endogenous protein)
T1 sequence (E9PTX9 1-1203): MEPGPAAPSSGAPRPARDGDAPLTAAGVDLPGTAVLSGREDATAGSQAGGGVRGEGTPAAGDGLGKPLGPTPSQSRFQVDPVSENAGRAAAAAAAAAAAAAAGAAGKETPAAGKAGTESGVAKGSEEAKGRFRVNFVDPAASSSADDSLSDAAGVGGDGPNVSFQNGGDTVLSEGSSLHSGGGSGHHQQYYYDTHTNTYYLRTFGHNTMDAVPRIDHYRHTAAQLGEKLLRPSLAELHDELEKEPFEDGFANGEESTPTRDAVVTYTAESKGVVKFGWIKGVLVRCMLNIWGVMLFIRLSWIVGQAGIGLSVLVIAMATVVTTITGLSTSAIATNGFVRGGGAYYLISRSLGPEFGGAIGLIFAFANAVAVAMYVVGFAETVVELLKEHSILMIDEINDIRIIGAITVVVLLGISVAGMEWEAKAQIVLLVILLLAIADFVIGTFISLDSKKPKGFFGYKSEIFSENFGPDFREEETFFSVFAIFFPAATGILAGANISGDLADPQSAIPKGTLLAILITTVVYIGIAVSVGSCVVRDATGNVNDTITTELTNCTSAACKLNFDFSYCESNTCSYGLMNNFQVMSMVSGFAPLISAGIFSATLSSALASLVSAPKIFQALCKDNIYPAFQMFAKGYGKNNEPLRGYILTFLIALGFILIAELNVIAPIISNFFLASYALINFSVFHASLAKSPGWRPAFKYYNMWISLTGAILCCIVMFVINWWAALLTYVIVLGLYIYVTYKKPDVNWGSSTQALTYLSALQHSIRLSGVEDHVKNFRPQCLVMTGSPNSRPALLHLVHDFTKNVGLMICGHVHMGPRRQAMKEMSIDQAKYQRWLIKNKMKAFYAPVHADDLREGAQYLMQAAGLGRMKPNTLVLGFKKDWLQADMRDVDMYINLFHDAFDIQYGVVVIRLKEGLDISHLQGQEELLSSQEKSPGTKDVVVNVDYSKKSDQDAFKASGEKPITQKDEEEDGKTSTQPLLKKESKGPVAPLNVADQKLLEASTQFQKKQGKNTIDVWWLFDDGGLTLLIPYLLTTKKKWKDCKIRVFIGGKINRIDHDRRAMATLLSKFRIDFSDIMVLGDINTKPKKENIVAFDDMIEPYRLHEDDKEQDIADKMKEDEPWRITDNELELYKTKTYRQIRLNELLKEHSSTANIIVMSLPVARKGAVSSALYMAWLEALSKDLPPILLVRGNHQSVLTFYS

Sprague Dawley rats = experiment: rat model of vigabatrin (VGB)-induced retinal toxicity, histopathologic analysis of retina; settings: for VGB-induced retinal toxicity: 30 days
Description: We closely follow the methods of Duboc, et al (12) that recommend 30 days of treatment in juvenile rats to induce a lesion.
Model of VGB-induced toxicity. VGB is administered to young adult/juvenile Sprague Dawley rats between 6-7 weeks of age for a period of 30 days. VGB is dissolved in 0.9% NaCl at 100 mg/mL and injected intraperitoneally (i.p.) daily for 30 days at doses of 5 and 3 mg/day as described for treatment of animal epilepsy (26).
Treatment groups. We use of 15 animals per group. […] The doses are daily.
Histopathologic analysis of retina. As per established protocols eye cups are fixed overnight at 4° C. in 4% (wt/vol) paraformaldehyde in phosphate buffered saline PBS) 0.01M, pH 7.4. After cryoprotection in PBS containing successively 10, 20, and 30% sucrose at 4° C., the tissue is embedded in OCT (Labonord, Villeneuve d'Ascq, France). A preliminary analysis of general retinal morphology is performed on vertical sections (8-10 μm thickness) using hematoxylin and eosin. Additional sections are permeabilized for 5 minutes in PBS containing 0.1% Triton X-100 (Sigma, St. Louis, Mo.), rinsed, and incubated in PBS containing 1% bovine serum albumin (Eurobio, Les-Ulis, France), 0.1% Tween 20 (Sigma), and 0.1% sodium azide (Merck, Fontenay-Ss-Bois) for 2 hours at room temperature. The primary antibody is added to the solution and incubated for 2 hours at room temperature. Antibodies were anti-GFAP rabbit polyclonal antibody (1:400; DAKO), and antiactive caspase-3 rabbit polyclonal antibody (1:100; Cell Signaling Technology, Beverly, Mass.). […] Cone photoreceptors are stained with peanut agglutinin lectin coupled to Texas Red (PNA, 1:40; Sigma). […] The dye, diamidiphenyl-indole (DAPI), is added to any incubation solution. Sections are mounted with Fluorsave reagent (Calbiochem, San Diego, Calif.). PNA-stained cone inner/outer segments are counted on retinal sections in eight consecutive 300 μm-wide optical windows on each side of the optic nerve under the 40× objective. Areas with a disorganized outer nuclear layer are specifically excluded from this count. Vertical sections are stained with hematoxylin and eosin.
Tissue Preparation for Electron Microscopy. […] The tissue is rinsed in cacodylate 0.15M and postfixed in 1% osmium tetroxide (Electron MicroscopySciences) for 1 hour. After dehydration in ethanol, and propylene oxide, the tissue is embedded in epon. Semithin sections are stained with methylene blue and ultrathin sections (80 nm) contrasted with lead citrate and uranyl acetate.
Data analysis. For quantification we use the same outcome measures of retinal injury as Duboc et al and Jammoul et al (12, 25). Vertical sections along the dorsoventral axis are selected at the optic nerve. After DAPI nuclear staining, the lengths of disorganized retinal areas are measured; GFAP immunostaining is used for detection and quantification of retinal areas with reactive gliosis. The cone photoreceptor density is calculated after cone arrestin immunostaining to visualize the inner/outer segments of cone photoreceptors; areas with disorganized retinal layering were excluded.

[1] = FDA not approvable action 1998; cited from earlier work
[2] = bumetanide higher dose (0.2 mg/kg)

| Compound | protection against VGB-induced white matter injury / IME (Sprague Dawley rat pups; higher dose of bumetanide (0.2 mg/kg) with VGB 50 mg/kg/day) | protection against VGB-induced white matter injury / IME (Sprague Dawley rat pups; lower dose of bumetanide (0.1 mg/kg/day i.p.) with VGB 50 mg/kg/day, PND 4-25) | suppression of NKCC1 in brain (NKCC1) | VGB-induced retinal toxicity (Sprague Dawley rats; bumetanide 0.2 mg/kg dose with VGB) | adverse effects of diuresis (Sprague Dawley rats; [2]) | effects on body weight or skin turgor (Sprague Dawley rats; [2]) | VGB-induced retinal toxicity (Sprague Dawley rats; lower dose of bumetanide 0.1 mg/kg i.p. daily with VGB 5 mg/day) | incidence of permanent vision loss [1] [%] | vigabatrin toxicity in retina (histopathology) (Sprague Dawley rats; VGB i.p. daily for 30 days, juvenile rats) |
| --- | --- | --- | --- | --- | --- | --- | --- | --- | --- |
| CCCCNc1cc(C(=O)O)cc(S(N)(=O)=O)c1Oc1ccccc1 [bumetanide, Bumetanide] | additional efficacy | shows protective efficacy | effectively suppresses NKCC1 in brain | additional efficacy | no adverse effects of any modest diuresis | nor any significant effects on body weight or skin turgor | significant decrease in toxicity |  |  |
| C=CC(N)CCC(=O)O (stereo not drawn) [vigabatrin, gamma-vinyl-GABA] |  |  |  |  |  |  |  | 30 | photoreceptor injury/loss and vacuolization |
